Assay results reported in article PMC13252604, “First Generation Proteolysis Targeting Chimeras (PROTACs) for the Treatment of Progeria” (Advanced Science, 2026).

Tested on: phosphorylated histone 2AX (pH2AX)
Assay: pH2AX immunoblot in mouse progeroid cells
Format: cell-based
Settings: Lmna^G609G/G609G fibroblasts, 5 µM, relative to GAPDH
Protocol: Confocal fluorescence microscopy images are representative of 2 independent experiments. […] Representative cropped immunoblots are shown. […] MW, molecular weight (in kDa) markers. (C) PROTAC 2 decreases senescence‐associated β‐galactosidase (SA‐βgal) activity, interleukin (IL) 1α and p16 senescent markers. Lmna^G609G/G609G (G609G) or Lmna^+/+ (WT) fibroblasts were incubated with vehicle or compound 2 (5 µM). […] Data were analysed using one‐way ANOVA followed by Dunnett's post–hoc test. ^*, p < 0.05; ^**, p < 0.01, ^***, p < 0.001, ^****, p < 0.0001 vs G609G cells. […]
compound exposure. […] Samples were analysed by electrophoresis in polyacrylamide gels (All Kd SDS-PAGE, BioRad) and the proteins transferred to nitrocellulose membranes (GE Healthcare, Amersham). […]
GAPDH (Cell Signaling, 2118S, 1:5000) and anti-actin (Santa Cruz Biotechnology, sc-376248, 1:500) as antibodies for loading control. […] The bands were quantified by densitometry using the […]
Quantification of different proteins intensity was performed using ImageJ (NIH) except for nuclear rim progerin intensity with Cell Profiler (Broad Institute). […]
SA β-galactosidase activity was determined by the FDG method. […]

## CC1(C)Oc2cc3oc(=O)ccc3cc2C[C@@H]1OC(=O)CCCCCNc1cccc2c1C(=O)N(C1CCC(=O)NC1=O)C2=O (stereo partly shown) [compound 2]
  levels of phosphorylated histone 2AX (pH2AX): reduces the levels of phosphorylated histone 2AX
